# Measured values taken from patent US11160788B2, “Caspase-1 inhibition and uses thereof for prevention and treatment of neurological conditions” (priority 2016, dated 2021).
# “Also recorded” adds a separate entry of the source.
# Key:
# J20 mice [1] = assay: Open field, preventive treatment of pre-symptomatic J20 mice; format: in vivo, mouse
# Experimental: FIG. 21: Open-field assessment to assess hyperactivity in J20 mice. Mice were treated with vehicle (WT and J20) or 50 mg/kg VX-765 (J20) at 2 months of age for 1 month (3 injections per week×4 weeks=12 injections). Hyperactivity was assessed by measuring the distance travelled (a), the number of quadrant entries (b), and the % time moving (c), while anxiety was assessed by the % time spent in periphery (d).
# Studies are done on 8 (pre-symptomatic) week old J20 and littermate WT controls injected with 50 mg/Kg VX-765 or vehicle. The 8 week old mice are injected for 4 weeks (3 injections per week) and monitored for memory deficits at 16 weeks of age and every 4 weeks thereafter until the mice reach 8 months of age. VX-765 delays the onset of cognitive deficits by at least 5 months in the J20 mouse.
# (§1) We directly tested whether pre-symptomatic inhibition of inflammation in a mouse genetic model of Alzheimer disease can stem the progression of memory and behavioral deficits, and Alzheimer disease-like pathology. The J20 amyloid precursor protein Swedish/Indiana mutant mouse was treated at 2 months of age for a one month period with 50 mg/Kg Caspase-1 inhibitor VX-765 (FIG. 22a).
# J20 mice [2] = assay: Iba1 and GFAP immunostaining, preventive treatment of J20 mice; format: in vivo, mouse
# Text: FIG. 4: Immunostainings of mice hippocampus at 4 months of age (PREVENTION GROUP) with microglial Iba-1, astrocyte GFAP, and synaptic synaptophysin antibodies.
# FIG. 25: Iba1 immunopositive staining in the mice brain hippocampus at different times of washout (a,b). All sections were immunostained together and automatically with Dako immunostainer and the number of Iba1-immunopositive […] counted stereologically. Statistics done as described in FIG. 10b. (c) Analyses of subtypes of Iba1-immunopositive microglia as described in FIG. 10c.
# FIG. 26: GFAP immunopositive staining in the hippocampus of mice brains at different times of washout (a,b). All sections were immunostained together and automatically with Dako immunostainer. Quantitation of GFAP-immunopositive astrocytes was done as described above.
# as §1
# J20 mice [3] = assay: ELISA of II-1β and other cytokines, treated symptomatic J20 mice; format: in vivo, mouse
# Text: FIG. 10: VX-765 reverses neuroinflammation in J20 mice. (a) Iba-1 positive microglia immunohistographs in the stratum lacunosum molecular area of the hippocampus and S1 of cortex (Scale bar=50 μm). (b) Stereological quantification of Iba-1^+ microglia for WT+Vehicle (n=6), J20+Vehicle (n=5), and J20+VX-765 (n=4) in the hippocampus from the pyramidal cell layer to the stratum lacunosum molecular layer (F(2,11)=58, p<0.0001) and cortex (F(2,11)=39.95, p<0.0001, ANOVA, Dunnett's post-hoc compared to J20+Vehicle, ***p<0.001). (c) Average percentage distribution of morphological microglial subtypes 1 (black (lowermost) bar), 2 (light grey bar), 3 (dark grey bar) and 4 (black (uppermost) bar). (d) II1-β pg/mg levels measured by ELISA in pre-treated J20 at 5 months of age and in treated WT and J20 8 months of age. (e) Astroglial GFAP^+ immunohistographs.
# FIG. 18: ELISA measures of cytokines in vehicle-treated WT and J20 mice and VX-765-treated J20 mice. (a) Plasma levels of II-1β in mice after T3. (b) Cytokine levels in vehicle-treated WT and J20 and in VX-765-treated J20 brain hippocampi and cortex. (c) GFAP immunostaining density in vehicle-treated WT (n=6) and J20 (n=5) and in VX-765-treated J20 (n=4) brain hippocampi (F(2,12)=5.234, p=0.0232, ANOVA, Dunnett's post-hoc compared to WT+Vehicle, *p<0.05) and cortex. (d) Western blots and quantitative analyses of GFAP in vehicle-treated WT and J20 and in VX-765-treated J20 brain hippocampi and cortex.
# (§2) To assess AD-like pathology, immunohistochemical analyses were performed to detect amyloid deposition (anti-AβF25276)^5,6, microglial (Iba1) activation^7, astrogliosis (GFAP), synaptophysin protein levels on coronal brain sections. Multiplex MSD ELISA was used to assess Aβ levels and 38,40, and 42 subtypes, and II-1β brain levels. RT-PCR was used to assess levels of human APP^Sw/Ind.
# J20 mice [4] = assay: Synaptophysin immunostaining and synaptic gene mRNA, treated symptomatic J20 mice; format: in vivo, mouse; details: hippocampus, immunohistochemistry, 50 mg/kg, 8 month old
# Text: FIG. 12: VX-765 reverses loss of synaptophysin immunohistological staining in J20 mice. (a) Immunohistological micrographs from pre-treated 5 month old J20 and 8 month old vehicle or VX-765 treated WT or J20 mouse hippocampus and cortex. (b) Quantitative analysis comparing synaptophysin immunostaining density between WT+Vehicle (n=4), J20+Vehicle (n=4), and J20+VX-765 (n=4) in the hippocampus (F(2,9)=7.974, p=0.0102, ANOVA, Tukey's post-hoc, * p<0.05) and cortex.
# as §2
# mouse Casp11 = biological target: T1, mouse Casp11 (Mus musculus, UniProt P70343); assay: Selectivity against mouse Casp11; format: biochemical; details: recombinant caspases
# T1 sequence (P70343 81-266 limits assumed): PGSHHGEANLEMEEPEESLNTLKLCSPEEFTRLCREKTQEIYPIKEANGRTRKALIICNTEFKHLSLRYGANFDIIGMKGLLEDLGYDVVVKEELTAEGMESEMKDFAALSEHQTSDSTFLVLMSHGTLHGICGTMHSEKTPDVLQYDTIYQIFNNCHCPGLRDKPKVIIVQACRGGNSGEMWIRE
# T1 sequence (P70343 286-373 limits assumed): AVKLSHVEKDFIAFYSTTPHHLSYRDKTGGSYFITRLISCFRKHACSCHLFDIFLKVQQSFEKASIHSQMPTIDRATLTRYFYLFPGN
# Experimental: FIG. 14: Selectivity and blood brain permeability of VX-765 and VRT-043198. (a-b) IC50 of VX-765 (a) and VRT-043198 (b) against human Casp1-10. (c-d) IC50 of VX-765 (c) and VRT-043198 (d) against mouse Casp1 and Casp11. (e) Blood brain barrier permeability and presence of VX-765 and VRT-043198 in 3 wild type and 4 J20 mice brain cortex and hippocampus and in plasma. Ratios of brain levels to plasma levels are calculated.
compound,measurement,setting,value
"CCO[C@@H]1OC(=O)C[C@@H]1NC(=O)[C@@H]1CCCN1C(=O)[C@@H](NC(=O)c1ccc(N)c(Cl)c1)C(C)(C)C [VX-765, (S)-1-((S)-2-{[1-(4-amino-3-chloro-phenyl)-methanoyl]-amino}-3,3-dimethyl-butanoyl)-pyrrolidine-2-carboxylic acid ((2R,3S)-2-ethoxy-5-oxo-tetrahydro-furan-3-yl)-amide]","open field hyperactivity (distance travelled, quadrant entries)",J20 mice [1]; 4 months of age (4 week washout),normal behavior at 4 months of age; also recorded: behave as the vehicle-treated WT mice
same,open field hyperactivity,J20 mice [1]; 5 months of age (8 week washout) and thereafter,hyperactivity returned by 5 months of age; also recorded: lost at the 8 week washout assessment and thereafter
same,% time of movement,J20 mice [1]; 8 week to 20 week washout,did not alter
same,GFAP astrogliosis,J20 mice [2]; 4 month old J20 brains,possibly GFAP astrogliosis
same,microglial Iba1 positive inflammation,J20 mice [2]; 4 month old J20 brains,reduced microglial Iba1 positive inflammation
same,astrocytic GFAP immunostaining,J20 mice [2]; different times of washout,does not reach statistical significance
same,Iba1 positive microglial inflammation,"J20 mice [2]; hippocampus and cortex, different times of washout",strongly decreased microglial inflammation
same,subtype of microglia,"J20 mice [2]; up to the 12 week washout, hippocampus and cortex",restores resting microglia numbers
same,TNFα protein level in hippocampi,J20 mice [3],returned to normal
same,II-1β level in hippocampus,"J20 mice [3]; 50 mg/kg, after Treatment 3",reduced after VX-765 treatment
same,II-1β level in plasma,J20 mice [3]; after Treatment 3,No changes were seen
same,"other inflammatory protein levels (TNF-α, KC-GRO, IFN-γ)",J20 mice [3]; brain hippocampi and cortex,No significant difference
same,synaptophysin levels,J20 mice [4],increased synaptophysin levels; also recorded: significantly increased and returned to normal levels
same,inhibition of mouse Casp1 compared to mouse Casp11,mouse Casp11,strongly inhibited compared to inflammatory mouse Casp11
